# Test results: patent publication US20110313021A1, “Method to rapidly identify critical p53 target genes that can be utilized for therapeutic intervention” (priority 2010, published 2011)
# Molecular target: T1, GST-tagged recombinant MCAK protein (amino acids 182 to 646 of the human MCAK protein) (Homo sapiens, UniProt Q99661)
# T1 construct: corresponding to amino acids 182 to 646 of the human MCAK protein; GST; purchased Cytoskeleton, Denver Colo
# Assay: MCAK ATPase assay
# Format: biochemical
# Settings: dose-response, read-out: 50% inhibitory concentration (IC50) for MCAK activity
# From the text: Based on the instant data supporting a role for MCAK in p53 mediated cell death, it can be reasoned that MCAK will also fill a therapeutic niche for rational drug design targeting the mitotic checkpoint. Importantly, cancer cells with abrogated p53 contain high levels of MCAK, thereby providing a genetic determinant for therapeutic use of MCAK inhibitors. Accordingly, the inventor sought to identify and characterize inhibitors of MCAK function. MCAK utilizes the energy of Adenosine triphosphate (ATP) hydrolysis to carry out its MT depolymerization function. The inventor exploited this characteristic to utilize and optimize a commercially available in vitro assay that measures MCAK ATPase activity (Cytoskeleton, Denver Colo.). The components of the assay are: recombinant MCAK protein, ATP, pre-formed MTs, detection reagent for inorganic phosphate (Pi), and the appropriate buffers for the reaction. We utilized a glutathione S-transferase (GST)-tagged recombinant MCAK protein corresponding to amino acids 182 to 646 of the human MCAK protein, a region of the protein that contains the kinesin motor domain of MCAK. The ATPase activity of MCAK directly correlates to the presence of Pi in the reaction mixture.
# The inventor used the MCAK ATPase to carry out a high-throughput screen (HTS) of a library of synthetic small molecules and various natural products. […]
# T1 sequence (Q99661 182-646): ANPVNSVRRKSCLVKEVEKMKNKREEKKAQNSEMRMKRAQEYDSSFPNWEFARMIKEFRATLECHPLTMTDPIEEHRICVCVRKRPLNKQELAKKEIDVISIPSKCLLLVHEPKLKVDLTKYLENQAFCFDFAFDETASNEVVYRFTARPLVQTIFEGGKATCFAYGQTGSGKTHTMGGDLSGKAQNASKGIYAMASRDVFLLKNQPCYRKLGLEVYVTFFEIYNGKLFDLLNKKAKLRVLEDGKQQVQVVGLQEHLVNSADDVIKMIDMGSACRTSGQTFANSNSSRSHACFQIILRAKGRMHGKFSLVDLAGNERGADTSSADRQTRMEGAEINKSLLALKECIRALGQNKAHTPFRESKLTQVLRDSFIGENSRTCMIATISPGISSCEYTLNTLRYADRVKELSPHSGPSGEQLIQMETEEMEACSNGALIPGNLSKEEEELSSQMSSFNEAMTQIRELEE
smiles,measurement,value
Cc1cc2c(C(C)C)c(O)c(O)c(C=O)c2c(O)c1-c1c(C)cc2c(C(C)C)c(O)c(O)c(C=O)c2c1O [gossypol],IC50,~11 µM
